In PubChem BioAssay (NCI):
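Where inhibition never reached the appropriate level, the endpoint shown equals the highest concentration tested. Otherwise, values were interpolated linearly from a five-concentration, 48-hour dose response in 96-well plates. Here, GI50 denotes the concentration required for 50% inhibition of growth. TGI marks complete inhibition of growth.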

Experiments:
Assay in all cases: growth of human tumour cells (NCI), 48 h
[1] = tested on: COLO 205 colon
[2] = tested on: HCT-116 colon
[3] = tested on: HS 578T breast
[4] = tested on: LOX IMVI melanoma
[5] = tested on: MCF7 breast
[6] = tested on: MDA-MB-231 breast
[7] = tested on: SF-539 CNS
[8] = tested on: SK-MEL-5 melanoma
[9] = tested on: SNB-19 CNS
[10] = tested on: UACC-62 melanoma

Row | Structure (SMILES) | GI50 [1] [µM] | TGI [1] [µM] | GI50 [2] [nM] | TGI [2] [µM] | GI50 [3] [µM] | TGI [3] [µM] | GI50 [4] [µM] | TGI [4] [µM] | GI50 [5] [µM] | TGI [5] [µM] | GI50 [6] [µM] | TGI [6] [µM] | GI50 [7] [µM] | TGI [7] [µM] | GI50 [8] [µM] | TGI [8] [µM] | GI50 [9] [µM] | TGI [9] [µM] | GI50 [10] [nM] | TGI [10] [µM]
1 | COc1ccc(C(=O)c2cc(OC)c(OC)c(OC)c2)cc1/C=C/C(=O)c1ccc(O)cc1 | 15.1 | 36.3 | 1580 | 3.33 | 18.3 | > 100 | 1.75 | 3.9 | 3.16 | 15.9 | 4.02 | 24.9 | 2.72 | 7.9 | 1.46 | 2.98 | 4.42 | 19.7 | 1690 | 3.77
2 | CCOC(=O)c1sc2ncn(Cc3cccc(Cl)c3)c(=O)c2c1C | 20.7 | 36.6 | 12300 | 24.8 | 17.5 | 31.3 | 14.6 | 27.8 | 15.8 | 29.2 | 13.6 | 26.4 | 19.3 | 33.4 | 14.9 | 28.1 | 16.3 | 29.8 | 13400 | 26.8
3 | COc1ccc2c(CN3CCC(CO)CC3)cc3cc4c(cc3c2c1)OCO4 | 0.122 | 1.07 | 69 | 0.529 | 0.5 | 12.4 | 0.144 | 0.49 | 0.211 | 2.55 | 1.35 | 12.3 | 0.254 | 1.64 | 0.172 | 0.495 | 0.392 | 12.1 | 235 | 0.539
4 | O=C(Nc1ncc([N+](=O)[O-])s1)c1cccc([N+](=O)[O-])c1 | 4 | 24.7 | 2720 | 16.5 | 1.72 | > 28.4 | 3.66 | > 100 | 3.02 | > 88.2 | 5.12 | 54.5 | 3.23 | 37.1 | 2.75 | 11.5 | 3.53 | > 100 | 2380 | > 32.7
5 | COc1cc(/C=C2\CC(C)CC3C2=NN(c2ccccc2)C3c2cc(OC)c(OC)c(OC)c2)cc(OC)c1OC (stereo not given) | 17.5 | > 100 | 6210 | 33.1 | 18.4 | 81.2 | 9.69 | 27.8 | 10.6 | > 100 | 14.4 | 71 | 16.6 | 36.2 | 11.8 | 24.2 | 21.7 | > 100 | 11700 | 57.1
6 | CCN(Cc1ccc(F)cc1F)c1ccc(CO)c(Cl)c1 | 3.31 | 9.24 | 86.1 | 12.5 | 18.9 | > 72.8 | 14.4 | 29 | 0.238 | 12.6 | 12.1 | 25.5 | 16.1 | 31.7 | 5.75 | 20.5 | 19.9 | 68.8 | 98.1 | 0.581
